Reference: ChEMBL document CHEMBL1133710 (J Med Chem, 2000)

What was measured:
[1] = target: T1, D(4) dopamine receptor (Homo sapiens, UniProt P21917); assay: Binding Affinity was tested on the high affinity site of Dopamine receptor D4.4
T1 sequence (P21917 whole entry): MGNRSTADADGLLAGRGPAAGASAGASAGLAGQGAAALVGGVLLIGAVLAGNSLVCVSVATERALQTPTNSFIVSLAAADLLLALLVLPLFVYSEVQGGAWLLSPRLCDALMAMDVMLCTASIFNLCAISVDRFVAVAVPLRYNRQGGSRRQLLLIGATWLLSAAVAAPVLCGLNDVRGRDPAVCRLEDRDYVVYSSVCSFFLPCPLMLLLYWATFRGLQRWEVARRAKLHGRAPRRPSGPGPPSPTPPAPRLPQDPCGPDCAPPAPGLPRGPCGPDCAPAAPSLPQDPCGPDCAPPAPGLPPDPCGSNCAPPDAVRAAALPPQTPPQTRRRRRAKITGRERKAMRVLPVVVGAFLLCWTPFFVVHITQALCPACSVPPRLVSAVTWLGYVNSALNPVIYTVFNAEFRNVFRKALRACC

[2] = target: T2, D(1A) dopamine receptor (Bos taurus, UniProt Q95136); assay: Binding Affinity was tested on High Affinity Site of Bovine dopamine receptor D1. Tested for ability to displace the radioligand [3H]-SCH- 23390
T2 sequence (Q95136 whole entry): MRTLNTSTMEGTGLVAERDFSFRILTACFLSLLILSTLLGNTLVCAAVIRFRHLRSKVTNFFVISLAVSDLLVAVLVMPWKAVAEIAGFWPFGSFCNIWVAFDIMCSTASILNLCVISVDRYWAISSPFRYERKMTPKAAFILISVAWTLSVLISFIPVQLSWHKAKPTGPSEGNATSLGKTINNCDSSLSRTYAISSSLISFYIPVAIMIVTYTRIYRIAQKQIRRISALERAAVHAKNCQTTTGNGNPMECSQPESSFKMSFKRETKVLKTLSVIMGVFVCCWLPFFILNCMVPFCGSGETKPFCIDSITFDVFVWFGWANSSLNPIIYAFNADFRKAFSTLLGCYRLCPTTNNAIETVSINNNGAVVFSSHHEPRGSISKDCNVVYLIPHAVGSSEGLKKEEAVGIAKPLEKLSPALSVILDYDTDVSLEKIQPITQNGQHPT

[3] = target: T3, D(2) dopamine receptor (Homo sapiens, UniProt P14416)
T3 sequence (P14416 whole entry): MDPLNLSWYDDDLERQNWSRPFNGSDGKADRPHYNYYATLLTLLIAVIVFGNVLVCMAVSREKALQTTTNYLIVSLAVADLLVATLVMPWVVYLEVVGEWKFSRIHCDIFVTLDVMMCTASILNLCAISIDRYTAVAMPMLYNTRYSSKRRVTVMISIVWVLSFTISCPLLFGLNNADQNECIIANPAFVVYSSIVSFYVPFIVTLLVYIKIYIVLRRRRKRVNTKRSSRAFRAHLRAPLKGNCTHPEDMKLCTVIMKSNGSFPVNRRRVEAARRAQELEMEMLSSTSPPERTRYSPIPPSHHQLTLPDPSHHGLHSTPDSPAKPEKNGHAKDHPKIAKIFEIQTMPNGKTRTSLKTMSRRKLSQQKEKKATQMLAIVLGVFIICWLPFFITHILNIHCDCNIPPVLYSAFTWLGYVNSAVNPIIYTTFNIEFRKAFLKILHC

[4] = target: T3, D(2) dopamine receptor; remark: listed apart in the source
[5] = target: T4, D(3) dopamine receptor (Homo sapiens, UniProt P35462)
T4 sequence (P35462 whole entry): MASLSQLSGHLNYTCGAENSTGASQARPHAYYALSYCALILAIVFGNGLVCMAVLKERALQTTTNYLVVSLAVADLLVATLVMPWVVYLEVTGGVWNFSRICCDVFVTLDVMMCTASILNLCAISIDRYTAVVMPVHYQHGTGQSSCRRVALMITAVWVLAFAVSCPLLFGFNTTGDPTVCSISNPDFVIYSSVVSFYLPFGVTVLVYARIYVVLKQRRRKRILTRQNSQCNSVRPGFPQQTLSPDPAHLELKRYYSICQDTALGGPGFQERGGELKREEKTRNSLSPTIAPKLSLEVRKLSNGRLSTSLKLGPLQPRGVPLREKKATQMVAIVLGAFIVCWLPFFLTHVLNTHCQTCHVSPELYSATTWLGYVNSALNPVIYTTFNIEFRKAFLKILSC

[6] = target: T3, D(2) dopamine receptor; assay: Binding Affinity of Compound of Dopamine receptor D2S
[7] = target: T3, D(2) dopamine receptor; assay: Binding Affinity was determined in the presence of 100 micro M Gpp(NH)p for decoupling of the ternary complex of Compound to Dopamine receptor D2S
[8] = target: T1, D(4) dopamine receptor; assay: Binding Affinity was tested on low Affinity Site of Dopamine receptor D4.4
[9] = target: T3, D(2) dopamine receptor; assay: Binding Affinity was determined in the presence of 100 micro M Gpp(NH)p for decoupling of the ternary complex of Compound to Dopamine receptor D2L
[10] = target: T3, D(2) dopamine receptor; assay: Binding Affinity was tested on low Affinity Site of Dopamine receptor D2L
[11] = target: T3, D(2) dopamine receptor; assay: Dissociation constant of compound on one-site model Dopamine receptor D2S
[12] = target: T3, D(2) dopamine receptor; assay: Dissociation constant of compound on one-site model Dopamine receptor D2L
[13] = target: T1, D(4) dopamine receptor; assay: Dissociation constant of compound on one-site model Dopamine receptor D4.4
[14] = target: T4, D(3) dopamine receptor; assay: Binding Affinity was determined in the presence of 100 micro M Gpp(NH)p for decoupling of the ternary complex of Compound to Dopamine receptor D3
[15] = target: T4, D(3) dopamine receptor; assay: Binding Affinity was tested on low Affinity Site of Dopamine receptor D3
[16] = target: T4, D(3) dopamine receptor; assay: Dissociation constant of compound on one-site model Human Dopamine receptor D3
[17] = target: T5, D(2) dopamine receptor (Bos taurus, UniProt P20288); assay: Binding Affinity was tested on high Affinity Site of Bovine Dopamine D2 Receptor. Tested for ability to displace the radioligand [3H]-Spiperone
T5 sequence (P20288 whole entry): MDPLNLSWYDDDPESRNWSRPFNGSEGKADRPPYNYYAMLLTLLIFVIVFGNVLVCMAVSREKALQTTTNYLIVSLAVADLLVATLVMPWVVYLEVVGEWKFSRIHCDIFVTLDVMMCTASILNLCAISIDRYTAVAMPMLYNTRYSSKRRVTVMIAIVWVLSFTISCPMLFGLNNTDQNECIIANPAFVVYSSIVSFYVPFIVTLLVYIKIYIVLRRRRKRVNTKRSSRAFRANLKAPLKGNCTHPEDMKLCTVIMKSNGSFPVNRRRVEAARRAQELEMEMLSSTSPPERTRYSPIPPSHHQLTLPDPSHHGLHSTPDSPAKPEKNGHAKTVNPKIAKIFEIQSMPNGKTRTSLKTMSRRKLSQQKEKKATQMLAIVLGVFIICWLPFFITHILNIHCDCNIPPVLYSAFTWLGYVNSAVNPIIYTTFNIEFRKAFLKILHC

[18] = target: T5, D(2) dopamine receptor; assay: Dissociation constant of compound on one-site model Bovine dopamine receptor D2. Tested for ability to displace the radioligand [3H]spiperone at the binding site.
[19] = target: T5, D(2) dopamine receptor; assay: Binding Affinity was determined for decoupling of the ternary complex of Compound to Bovine dopamine receptor D2. Tested for ability to displace the radioligand [3H]spiperone at the binding site.
[20] = target: T5, D(2) dopamine receptor; assay: Binding Affinity was tested on high Affinity Site of Bovine dopamine receptor D2. Tested for ability to displace the radioligand [3H]pramipexole at the binding site.
[21] = target: T5, D(2) dopamine receptor; assay: Binding Affinity was tested on low Affinity Site of Bovine dopamine receptor D2. Tested for ability to displace the radioligand [3H]spiperone at the binding site.
[22] = target: T4, D(3) dopamine receptor; assay: Dissociation constant of compound on one-site model Dopamine receptor D3
[23] = target: T3, D(2) dopamine receptor; assay: Binding Affinity was tested on High Affinity Site of Dopamine receptor D2L
[24] = target: T3, D(2) dopamine receptor; assay: Binding Affinity was tested on High Affinity Site of Dopamine receptor D2S
[25] = target: T2, D(1A) dopamine receptor; assay: Binding Affinity was tested for its ability to displace the radioligand [3H]-SCH- 23390 from High Affinity Site of Bovine dopamine receptor D1
[26] = target: T3, D(2) dopamine receptor; remark: listed apart in the source
[27] = target: T3, D(2) dopamine receptor; remark: listed apart in the source
[28] = target: T4, D(3) dopamine receptor; remark: listed apart in the source
[29] = target: T2, D(1A) dopamine receptor; assay: Binding Affinity was tested on High Affinity Site of Bovine Dopamine D1 Receptor. Tested for ability to displace the radioligand [3H]-SCH- 23390

SMILES	Ki [1]	Ki [2]	Ki [3]	Ki [4]	Ki [5]	other results
CCCN(CCC)C1CC=C(C#Cc2ccccc2)CC1 (stereo unspecified)	16 µM	> 20 µM			3.5 µM	Ki [23]: 15 µM; Ki [24]: 15 µM
CCCN(CCC)C1CCC(=CC#N)CC1 (stereo unspecified)	> 20 µM					Ki [25]: > 20 µM; Ki [26]: > 20 µM; Ki [27]: > 20 µM; Ki [28]: 13 µM
CCCN(CCC)C1CCC(=C(C#N)C#N)CC1 (stereo unspecified)	> 20 µM	> 20 µM	15 µM	> 20 µM	1.6 µM	
CCCN(CCC)C1CC=C(C#N)CC1 (stereo unspecified)	> 20 µM	> 20 µM	> 20 µM	> 20 µM	13 µM	

These reach a lower Ki [1]. Values come first.

Ki [1]	Ki [2]	Ki [3]	Ki [4]	Ki [5]	SMILES	other results
1.4 µM	2.2 µM	7.3 µM	5.2 µM	1.8 µM	CCCN(CCC)C1CCC(=C(C#Cc2ccccc2)C#Cc2ccccc2)CC1 (stereo unspecified)	
0.022 µM		0.25 µM	0.27 µM	0.0052 µM	C#CC1=CCC(N(CCC)CCC)CC1 (stereo unspecified)	Ki [6]: 12 µM; Ki [7]: 17 µM; Ki [8]: 0.38 µM; Ki [9]: 19 µM; Ki [10]: 14 µM; Ki [11]: 2.9 µM; Ki [12]: 2.8 µM; Ki [13]: 0.17 µM; Ki [14]: 0.72 µM; Ki [15]: 0.59 µM; Ki [16]: 0.35 µM
0.16 µM	> 20 µM	0.97 µM	0.16 µM	0.047 µM	CCCN(CCC)C1CC=C(C#C[Si](C)(C)C)CC1 (stereo unspecified)	Ki [17]: 0.15 µM; Ki [6]: > 20 µM; Ki [7]: > 20 µM; Ki [8]: 3.8 µM; Ki [18]: 1.6 µM; Ki [19]: 12 µM; Ki [20]: 0.03 µM; Ki [21]: 7.5 µM; Ki [9]: > 20 µM; Ki [10]: > 20 µM; Ki [11]: > 20 µM; Ki [12]: > 20 µM; Ki [13]: 0.64 µM; Ki [14]: 1.9 µM; Ki [15]: 1.6 µM; Ki [22]: 0.82 µM
3.9 µM		> 20 µM	12 µM	4.4 µM	C#CC(C#C)=C1CCC(N(CCC)CCC)CC1 (stereo unspecified)	Ki [29]: 16 µM
1.9 µM		13 µM	11 µM	2.8 µM	CCCN(CCC)C1CCC(=C(C#C[Si](C)(C)C)C#C[Si](C)(C)C)CC1 (stereo unspecified)	Ki [29]: 3.9 µM
